# From patent US8802597B2, “Herbicidal pyrimidines” (E I du Pont de Nemours and Company, priority 2003, dated 2014)
# Read-outs that look alike come from different tables or passages of the source.
# What was measured:
# Experiment in all cases: Test C pre/postemergence
# Format in all cases: in vivo
# [1] = system: Surinam grass (Brachiaria decumbens); details: for pest or weed control at 125 g/ha / pest or weed control at 500 g/ha / pest or weed control at 62 g/ha / pest or weed control at 250 g/ha / pest or weed control at 31 g/ha: Urochloa decumbens; for pest or weed control at 31 g/ha: 31 g ai/ha
# How it was run: (§1)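 Applications: preemergence onto seeded soil and postemergence onto 1- to 4-leaf seedlings, compound carried in non-phytotoxic solvent plus surfactant. Kept in greenhouse 12 to 14 days. Scored visually relative to untreated controls, 0 (no effect) to 100 (complete control).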
# corn (Zea mays) = details: for Corn plant response rating (crop injury, 0 = no effect, 100 = complete kill) at 62 g/ha / Corn plant response rating (crop injury, 0 = no effect, 100 = complete kill) at 125 g/ha / Corn plant response rating (crop injury, 0 = no effect, 100 = complete kill) at 250 g/ha / Corn plant response rating (crop injury, 0 = no effect, 100 = complete kill) at 500 g/ha / Corn plant response rating (crop injury, 0 = no effect, 100 = complete kill) at 31 g/ha: Zea mays; for Corn plant response rating (crop injury, 0 = no effect, 100 = complete kill) at 31 g/ha: 31 g ai/ha
# How it was run: as §1
# [2] = system: goosegrass (Eleusine indica); details: for pest or weed control at 62 g/ha / pest or weed control at 125 g/ha / pest or weed control at 250 g/ha / pest or weed control at 500 g/ha / pest or weed control at 31 g/ha: Eleusine indica; for pest or weed control at 31 g/ha: 31 g ai/ha
# How it was run: as §1
# [3] = post-emergence, Postemergence, 125 g ai/ha, scale 0 to 100 (0 no effect, 100 complete control), read-out: Surinam Grass plant response rating
# [4] = post-emergence, Postemergence, 62 g ai/ha, scale 0 to 100 (0 no effect, 100 complete control), read-out: Surinam Grass plant response rating
# [5] = post-emergence, Postemergence, 250 g ai/ha, scale 0 to 100, read-out: Plant response rating, Surinam Grass
# [6] = pre-emergence, Preemergence, 62 g ai/ha, scale 0 to 100, 0 no effect, 100 complete control, read-out: Plant response rating, Surinam Grass
# [7] = pre-emergence, Preemergence, 125 g ai/ha, scale 0 to 100, read-out: Plant response rating, Surinam Grass
# [8] = pre-emergence, Preemergence, 250 g ai/ha, scale 0 to 100, read-out: Plant response rating, Surinam Grass
# [9] = post-emergence, Postemergence, 62 g ai/ha, scale 0 to 100 (0 no effect, 100 complete control), read-out: Corn plant response rating
# [10] = post-emergence, Postemergence, 125 g ai/ha, scale 0 to 100 (0 no effect, 100 complete control), read-out: Corn plant response rating
# [11] = post-emergence, Postemergence, 250 g ai/ha, scale 0 to 100
# [12] = pre-emergence, Preemergence, 62 g ai/ha, scale 0 to 100, 0 no effect, 100 complete control, read-out: Plant response rating, Corn
# [13] = pre-emergence, Preemergence, 125 g ai/ha, scale 0 to 100, read-out: Plant response rating, Corn
# [14] = pre-emergence, Preemergence, 250 g ai/ha, scale 0 to 100
# [15] = post-emergence, Postemergence, 62 g ai/ha, scale 0 to 100 (0 no effect, 100 complete control), read-out: Goosegrass plant response rating
# [16] = post-emergence, Postemergence, 125 g ai/ha, scale 0 to 100 (0 no effect, 100 complete control), read-out: Goosegrass plant response rating
# [17] = post-emergence, Postemergence, 250 g ai/ha, scale 0 to 100, read-out: Plant response rating, Goosegrass
# [18] = pre-emergence, Preemergence, 62 g ai/ha, scale 0 to 100, 0 no effect, 100 complete control, read-out: Plant response rating, Goosegrass
# [19] = pre-emergence, Preemergence, 125 g ai/ha, scale 0 to 100, read-out: Plant response rating, Goosegrass
# [20] = pre-emergence, Preemergence, 250 g ai/ha, scale 0 to 100, read-out: Plant response rating, Goosegrass
# [21] = Postemergence, 62 g ai/ha, scale 0 to 100 (0 no effect, 100 complete control)
# [22] = Postemergence, 125 g ai/ha, scale 0 to 100 (0 no effect, 100 complete control)
# [23] = Postemergence, 250 g ai/ha, scale 0 to 100
# [24] = Postemergence, 500 g ai/ha, scale 0 to 100
# [25] = Preemergence, 125 g ai/ha, scale 0 to 100
# [26] = Preemergence, 250 g ai/ha, scale 0 to 100
# [27] = Preemergence, 500 g ai/ha, scale 0 to 100
# [28] = Preemergence, 62 g ai/ha, scale 0 to 100, 0 no effect, 100 complete control
smiles,measurement,setting,value
Nc1nc(C2CC2)nc(C(=O)O)c1Br [Compound 8],pest or weed control at 125 g/ha,[1]; [3],65%
same,pest or weed control at 500 g/ha,"[1]; post-emergence, Postemergence, 500 g ai/ha, scale 0 to 100, read-out: Plant response rating, Surinam Grass",80%
same,pest or weed control at 62 g/ha,[1]; [4],40%
same,pest or weed control at 250 g/ha,[1]; [5],70%
same,pest or weed control at 62 g/ha,[1]; [6],0%
same,pest or weed control at 125 g/ha,[1]; [7],100%
same,pest or weed control at 250 g/ha,[1]; [8],100%
same,pest or weed control at 500 g/ha,"[1]; pre-emergence, Preemergence, 500 g ai/ha, scale 0 to 100, read-out: Plant response rating, Surinam Grass",100%
same,"Corn plant response rating (crop injury, 0 = no effect, 100 = complete kill) at 62 g/ha",corn (Zea mays); [9],0%
same,"Corn plant response rating (crop injury, 0 = no effect, 100 = complete kill) at 125 g/ha",corn (Zea mays); [10],20%
same,"Corn plant response rating (crop injury, 0 = no effect, 100 = complete kill) at 250 g/ha",corn (Zea mays); [11],70%
same,"Corn plant response rating (crop injury, 0 = no effect, 100 = complete kill) at 500 g/ha","corn (Zea mays); post-emergence, Postemergence, 500 g ai/ha, scale 0 to 100",90%
same,"Corn plant response rating (crop injury, 0 = no effect, 100 = complete kill) at 62 g/ha",corn (Zea mays); [12],0%
same,"Corn plant response rating (crop injury, 0 = no effect, 100 = complete kill) at 125 g/ha",corn (Zea mays); [13],0%
same,"Corn plant response rating (crop injury, 0 = no effect, 100 = complete kill) at 250 g/ha",corn (Zea mays); [14],10%
same,"Corn plant response rating (crop injury, 0 = no effect, 100 = complete kill) at 500 g/ha","corn (Zea mays); pre-emergence, Preemergence, 500 g ai/ha, scale 0 to 100",75%
same,pest or weed control at 62 g/ha,[2]; [15],0%
same,pest or weed control at 125 g/ha,[2]; [16],0%
same,pest or weed control at 250 g/ha,[2]; [17],45%
same,pest or weed control at 500 g/ha,"[2]; post-emergence, Postemergence, 500 g ai/ha, scale 0 to 100, read-out: Plant response rating, Goosegrass",60%
same,pest or weed control at 62 g/ha,[2]; [18],0%
same,pest or weed control at 125 g/ha,[2]; [19],0%
same,pest or weed control at 250 g/ha,[2]; [20],35%
same,pest or weed control at 500 g/ha,"[2]; pre-emergence, Preemergence, 500 g ai/ha, scale 0 to 100, read-out: Plant response rating, Goosegrass",45%
"COC(=O)c1nc(C2CC2)nc(N)c1Cl [Compound 9, methyl 6-amino-5-chloro-2-cyclopropyl-4-pyrimidinecarboxylate]",pest or weed control at 125 g/ha,[1]; [3],75%
same,pest or weed control at 31 g/ha,"[1]; post-emergence, Postemergence, read-out: Plant response rating (scale of 0 to 100), Surinam Grass",45%
same,pest or weed control at 62 g/ha,[1]; [4],65%
same,pest or weed control at 250 g/ha,[1]; [5],80%
same,pest or weed control at 31 g/ha,"[1]; pre-emergence, Preemergence, scale 0 to 100, 0 no effect, 100 complete control, read-out: Plant response rating, Surinam Grass",95%
same,pest or weed control at 62 g/ha,[1]; [6],100%
same,pest or weed control at 125 g/ha,[1]; [7],100%
same,pest or weed control at 250 g/ha,[1]; [8],100%
same,"Corn plant response rating (crop injury, 0 = no effect, 100 = complete kill) at 31 g/ha","corn (Zea mays); post-emergence, Postemergence, read-out: Plant response rating (scale of 0 to 100), Corn",45%
same,"Corn plant response rating (crop injury, 0 = no effect, 100 = complete kill) at 62 g/ha",corn (Zea mays); [9],55%
same,"Corn plant response rating (crop injury, 0 = no effect, 100 = complete kill) at 125 g/ha",corn (Zea mays); [10],65%
same,"Corn plant response rating (crop injury, 0 = no effect, 100 = complete kill) at 250 g/ha",corn (Zea mays); [11],95%
same,"Corn plant response rating (crop injury, 0 = no effect, 100 = complete kill) at 31 g/ha","corn (Zea mays); pre-emergence, Preemergence, scale 0 to 100, 0 no effect, 100 complete control, read-out: Plant response rating, Corn",0%
same,"Corn plant response rating (crop injury, 0 = no effect, 100 = complete kill) at 62 g/ha",corn (Zea mays); [12],5%
same,"Corn plant response rating (crop injury, 0 = no effect, 100 = complete kill) at 125 g/ha",corn (Zea mays); [13],60%
same,"Corn plant response rating (crop injury, 0 = no effect, 100 = complete kill) at 250 g/ha",corn (Zea mays); [14],75%
same,pest or weed control at 31 g/ha,"[2]; post-emergence, Postemergence, read-out: Plant response rating (scale of 0 to 100), Goosegrass",0%
same,pest or weed control at 62 g/ha,[2]; [15],0%
same,pest or weed control at 125 g/ha,[2]; [16],40%
same,pest or weed control at 250 g/ha,[2]; [17],45%
same,pest or weed control at 31 g/ha,"[2]; pre-emergence, Preemergence, scale 0 to 100, 0 no effect, 100 complete control, read-out: Plant response rating, Goosegrass",0%
same,pest or weed control at 62 g/ha,[2]; [18],0%
same,pest or weed control at 125 g/ha,[2]; [19],20%
same,pest or weed control at 250 g/ha,[2]; [20],50%
COC(=O)CNc1nc(C2CC2)nc(C(=O)OC)c1Br [Compound 10],Surinam Grass plant response rating,[1]; [21],0
same,Surinam Grass plant response rating,[1]; [22],0
same,"Plant response rating, Surinam Grass",[1]; [23],0
same,"Plant response rating, Surinam Grass",[1]; [24],0
same,"Plant response rating, Surinam Grass",[1]; [25],0
same,"Plant response rating, Surinam Grass",[1]; [26],0
same,"Plant response rating, Surinam Grass",[1]; [27],0
same,Corn plant response rating,corn (Zea mays); [21],0
same,Corn plant response rating,corn (Zea mays); [22],0
same,"Plant response rating, Corn",corn (Zea mays); [23],0
same,"Plant response rating, Corn",corn (Zea mays); [24],0
same,"Plant response rating, Corn",corn (Zea mays); [28],0
same,"Plant response rating, Corn",corn (Zea mays); [25],0
same,"Plant response rating, Corn",corn (Zea mays); [26],0
same,"Plant response rating, Corn",corn (Zea mays); [27],0
same,Goosegrass plant response rating,[2]; [21],0
same,Goosegrass plant response rating,[2]; [22],0
same,"Plant response rating, Goosegrass",[2]; [23],0
same,"Plant response rating, Goosegrass",[2]; [24],0
same,"Plant response rating, Goosegrass",[2]; [28],0
same,"Plant response rating, Goosegrass",[2]; [25],0
same,"Plant response rating, Goosegrass",[2]; [26],0
same,"Plant response rating, Goosegrass",[2]; [27],0
